# From PubChem BioAssay (NCI)
# Where “and” joins values, the source holds several entries; their conditions need not be identical. Equal entries are not always repeated.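 Values below derive from 48-hour exposures of cells grown in 96-well plates, with endpoints linearly interpolated between the two concentrations bracketing the appropriate inhibition level. GI50: concentration for 50% inhibition of growth. TGI: concentration producing complete growth inhibition.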 Where a SMILES comes first, the peptide text is derived from it. [ ]: non-standard residue; d: D form. The star is where a group is joined. Dolaproine = CO[C@@H]([C@@H]1CCCN1)[C@@H](C)C(=O)O; Dil = CC[C@H](C)[C@H](NC)[C@@H](CC(=O)O)OC; X2 = C[C@@H](N*)[C@@H](O)c1ccccc1; NMeV = CN[C@H](C(=O)O)C(C)C
# Legend:
# Test in all cases: NCI-60 cell line screen, 48 h
# [1] = tested on: MDA-MB-468 breast
# [2] = tested on: OVCAR-5 ovarian
# [3] = tested on: HT29 colon
# [4] = tested on: ACHN renal
# [5] = tested on: HCT-116 colon
# [6] = tested on: OVCAR-8 ovarian
# [7] = tested on: HCT-15 colon
# [8] = tested on: SK-MEL-2 melanoma
# [9] = tested on: HL-60(TB) leukemia
# [10] = tested on: DU-145 prostate
# [11] = tested on: SK-MEL-5 melanoma
# [12] = tested on: MOLT-4 leukemia
# [13] = tested on: SF-539 CNS
# [14] = tested on: OVCAR-4 ovarian
# [15] = tested on: IGROV1 ovarian
# [16] = tested on: UO-31 renal
# [17] = tested on: BT-549 breast
# [18] = tested on: SK-MEL-28 melanoma
# [19] = tested on: MCF7 breast
# [20] = tested on: SN12C renal
# [21] = tested on: SNB-19 CNS
# [22] = tested on: UACC-62 melanoma
# [23] = tested on: MALME-3M melanoma
# [24] = tested on: CCRF-CEM leukemia
# [25] = tested on: K-562 leukemia
# [26] = tested on: COLO 205 colon
# [27] = tested on: MDA-MB-435
# [28] = tested on: MDA-MB-231 breast
# [29] = tested on: M14 melanoma
# [30] = tested on: KM12 colon
# [31] = tested on: UACC-257 melanoma
# [32] = tested on: SR leukemia
# [33] = tested on: T-47D breast
# [34] = tested on: TK-10 renal
# [35] = tested on: HCC-2998 colon
compound,measurement,setting,value
O=C(Nc1ncc(Cc2ccccc2)s1)c1sc2ccccc2c1Cl,GI50,[1],1.4 µM
same,TGI,[1],18.7 µM
CN[C@@H](C)C(=O)N[C@H]1CCS[C@H]2CC(C)(C)[C@@H](C(=O)N[C@H]3c4ccccc4C[C@H]3OCC#CC#CCO[C@@H]3Cc4ccccc4[C@@H]3NC(=O)[C@H]3N4C(=O)[C@@H](NC(=O)[C@H](C)NC)CCS[C@H]4CC3(C)C)N2C1=O,GI50,[1],< 0.005 µM
same,TGI,[1],0.0164 µM
Clc1ccc(C(Cn2ccnc2)OCc2ccsc2Cl)c(Cl)c1 (stereo not given),GI50,[1],2.3 µM
same,TGI,[1],7.3 µM
COc1cccc2[nH]c3c4c(c5c(c3c12)C(=O)N(CN1CCN(C)CC1)C5=O)CCC4,GI50,[1],5.15 µM
same,TGI,[1],26.6 µM
COc1cc(Nc2ccnc(NCCNc3ccnc4cc(Cl)ccc34)n2)cc(OC)c1,GI50,[1],1.04 µM
same,TGI,[1],3.33 µM
COc1cccc(C2=C(c3cn(C)c4ccc(Cl)cc34)C(=O)NC2=O)c1,GI50,[1],4.17 µM
same,TGI,[1],17.1 µM
O=C1/C(=C/c2ccccc2)CN(C(=O)CCN2CCC(=NO)CC2)C/C1=C\c1ccccc1,GI50,[1],1.74 µM
same,TGI,[1],4.25 µM
COc1ccc2c(c1)C=CC1(O2)Oc2ccc(OC)cc2C=C1C (stereo not given),GI50,[1],0.876 µM
same,TGI,[1],> 100 µM
Cc1ccc(S(=O)(=O)c2ccccc2)cc1,GI50,[1],1.59 µM
same,TGI,[1],5.78 µM
COc1cc(C2C3=C(COC3=O)N(CCO)c3cc4c(cc32)OCO4)cc(OC)c1OC (stereo not given),GI50,[1],0.242 µM and 0.344 µM
same,TGI,[1],0.626 µM and 0.979 µM
CSc1nc(-c2cc3ccccc3o2)cc(-c2ccc(Cl)cc2)c1C#N,GI50,[1],21.8 µM
same,TGI,[1],> 100 µM
Clc1ccc2c(N3CCN(c4ccnc(NC5CCCCC5)n4)CC3)ccnc2c1,GI50,[1],1.64 µM
same,TGI,[1],3.6 µM
O=C1/C=C/[C@@H](O)[C@@H]2C[C@@H](O)C[C@H]2/C=C/CCC[C@H](CCOCc2ccccc2)O1,GI50,[1],< 0.0161 µM
same,TGI,[1],0.0312 µM
CC1CCCc2sc3nc(NNC(=O)c4cnccn4)n(-c4ccccc4)c(=O)c3c21 (stereo not given),GI50,[1],0.333 µM and 0.239 µM
same,TGI,[1],2.3 µM and 0.946 µM
NC(N)=NN=C(c1ccccc1)c1ccccc1,GI50,[1],2.2 µM
same,TGI,[1],12.2 µM
N#CC1(Nc2ccc(Br)cc2)CCCC1,GI50,[1],> 100 µM
same,TGI,[1],> 100 µM
C=CC(=O)N1CCN(CCCn2c(=O)c(-c3c(Cl)c(OC)cc(OC)c3Cl)cc3cnc(NC)nc32)CC1,GI50,[1],1.24 µM
same,TGI,[1],5.9 µM
CNC(=O)c1ccccc1Nc1cc(Nc2ccc(N3CCOCC3)cc2OC)ncc1C(F)(F)F,GI50,[1],27.8 µM
same,TGI,[1],97.8 µM
O=C(Cc1n[nH]c(=O)c2ccccc12)OCc1c(Cl)cccc1Cl,GI50,[1],> 100 µM
same,TGI,[1],> 100 µM
O=C(NCCCCCCCCCC[P+](c1ccccc1)(c1ccccc1)c1ccccc1)c1ccc(-n2nc(-c3ccccc3O)nc2-c2ccccc2O)cc1,GI50,[2],0.192 µM
same,TGI,[2],0.926 µM
same,GI50,[3],0.0401 µM
same,TGI,[3],0.789 µM
same,GI50,[4],0.379 µM
same,TGI,[4],1.36 µM
same,GI50,[5],0.0377 µM
same,TGI,[5],1.08 µM
same,GI50,[6],0.074 µM
same,TGI,[6],1.22 µM
same,GI50,[7],0.566 µM
same,TGI,[7],2.48 µM
same,GI50,[8],0.133 µM
same,TGI,[8],0.53 µM
same,GI50,[9],0.0565 µM
same,TGI,[9],0.461 µM
same,GI50,[10],0.0464 µM
same,TGI,[10],1.63 µM
same,GI50,[11],0.165 µM
same,TGI,[11],0.447 µM
same,GI50,[12],0.0585 µM
same,TGI,[12],1.43 µM
same,GI50,[13],0.172 µM
same,TGI,[13],0.716 µM
same,GI50,[14],0.18 µM
same,TGI,[14],2.21 µM
same,GI50,[15],0.0483 µM
same,TGI,[15],1.18 µM
same,GI50,[16],0.428 µM
same,TGI,[16],1.93 µM
same,GI50,[17],0.104 µM
same,TGI,[17],0.673 µM
same,GI50,[18],0.115 µM
same,TGI,[18],1.59 µM
same,GI50,[19],0.0417 µM
same,TGI,[19],0.953 µM
same,GI50,[20],0.0407 µM
same,TGI,[20],0.721 µM
same,GI50,[21],0.0505 µM
same,TGI,[21],1.17 µM
same,GI50,[1],0.0255 µM
same,TGI,[1],0.121 µM
same,GI50,[22],0.084 µM
same,TGI,[22],0.568 µM
same,GI50,[23],0.0307 µM
same,TGI,[23],0.19 µM
same,GI50,[24],0.0396 µM
same,TGI,[24],> 100 µM
same,GI50,[25],0.0449 µM
same,TGI,[25],3.21 µM
same,GI50,[26],0.0508 µM
same,TGI,[26],0.268 µM
same,GI50,[27],0.0409 µM
same,TGI,[27],1.11 µM
same,GI50,[28],0.0993 µM
same,TGI,[28],0.728 µM
same,GI50,[29],0.0825 µM
same,TGI,[29],1.32 µM
same,GI50,[30],0.203 µM
same,TGI,[30],1.34 µM
same,GI50,[31],0.0904 µM
same,TGI,[31],0.792 µM
same,GI50,[32],< 0.0191 µM
same,TGI,[32],> 40.5 µM
same,GI50,[33],0.0352 µM
same,TGI,[33],0.522 µM
same,GI50,[34],0.33 µM
same,TGI,[34],1.5 µM
same,GI50,[35],0.0574 µM
same,TGI,[35],1.43 µM
Cc1nc2ccccc2nc1NNc1ccccc1,GI50,[1],10.3 µM
same,TGI,[1],58 µM
Cc1ccc(C)c(NC2=C(Cl)C(=O)c3nc(C)ccc3C2=O)c1,GI50,[1],1.51 µM
same,TGI,[1],3.08 µM
O=C(C[n+]1cccc2cc(Cl)ccc21)c1ccc2c(c1)CCCC2,GI50,[1],0.423 µM
same,TGI,[1],1.82 µM
C[C@@H]1C[C@H]2C(=O)OCC(NC(=O)[C@H](Cc3cc(F)cc(F)c3)NC(=O)Nc3ccc(Cl)cc3F)C(=O)N3CCC[C@H]3C(=O)N3CCCC[C@H]3C(=O)N[C@@H](C)C(=O)N2C1 (stereo not given in full),GI50,[1],1.43 µM and 0.294 µM
same,TGI,[1],18.8 µM and 2.88 µM
COc1ccc(-c2cn[nH]c2-c2cc(OC)c(OC)c(OC)c2)cc1OCc1ccccc1,GI50,[1],2.18 µM
same,TGI,[1],7.94 µM
O=C(Nc1ccc2[nH]c3ccccc3c2c1)c1ccccc1Cl,GI50,[1],2.86 µM
same,TGI,[1],24.9 µM
Nc1ccc(S(=O)(=O)c2ccc(N)cc2)cc1,GI50,[1],> 100 µM
same,TGI,[1],> 100 µM
COc1cc(/C=C/C(=O)c2ccc(Nc3nc(NCCO)nc(N4CCOCC4)n3)cc2)cc(OC)c1OC,GI50,[1],1.34 µM
same,TGI,[1],3.76 µM
COC1=C(OC)C(=O)C(CCCCCCCCCC[P+](c2ccccc2)(c2ccccc2)c2ccccc2)=C(C)C1=O,GI50,[1],0.0668 µM
same,TGI,[1],0.694 µM
COc1ccc2cc(C#Cc3ccc(-n4c(/C=C/c5cc(OC)c(OC)c(OC)c5)nc5ccccc5c4=O)c(C)c3)ccc2c1,GI50,[1],3.8 µM
same,TGI,[1],> 100 µM
CCCCC(CCCCCC(CCCC)C1NC(C)Cc2cc(OC)c(OC)cc21)C1NC(C)Cc2cc(OC)c(OC)cc21 (stereo not given),GI50,[1],0.436 µM
same,TGI,[1],1.88 µM
CCOc1cc(F)c([N+](=O)[O-])cc1[N+](=O)[O-],GI50,[1],1.86 µM
same,TGI,[1],3.51 µM
Nc1n[nH]c2cccc(C#Cc3cccc(NC(=O)c4ccc(N5CCOCC5)c(C(F)(F)F)c4)c3)c12,GI50,[1],2.28 µM
same,TGI,[1],6.82 µM
CC[N+](CC)=c1cc2oc3cc(N(C)C)ccc3nc-2cc1C,GI50,[1],1.33 µM
same,TGI,[1],4.39 µM
CCNC(=O)N1CCc2cc(OC)c(OCCc3ccc(OC)cc3)cc2C1c1ccc(OC)cc1C (stereo not given),GI50,[1],1.93 µM
same,TGI,[1],> 30.2 µM
COc1ccc(/C(C)=C(\c2ccc(Cl)cc2)c2ccc(OCCN3CCCCC3)cc2)cc1,GI50,[1],3.67 µM
same,TGI,[1],8.03 µM
CC[C@H](C)[C@@H]([C@@H](CC(=O)N1CCC[C@H]1[C@H](OC)[C@@H](C)C(=O)N[C@H](C)[C@@H](O)c1ccccc1)OC)N(C)C(=O)[C@@H](NC(=O)[C@@H](NC)C(C)C)C(C)C (H-[NMeV]V[Dil][Dolaproine]-X2),GI50,[1],< 0.005 µM
same,TGI,[1],> 57.1 µM
CC[C@H](C)[C@H](NC(=O)c1ccccn1)C(=O)N(C)[C@H](C[C@@H](OC(C)=O)c1nc(C(=O)N[C@@H](Cc2ccccc2)C[C@H](C)C(=O)OC)cs1)C(C)C,GI50,[1],3.38 µM
same,TGI,[1],15.4 µM
c1cc[n+](C2c3ccccc3C([n+]3ccccc3)c3ccccc32)cc1 (stereo not given),GI50,[1],1.11 µM
same,TGI,[1],4.4 µM
O=C1Nc2ccccc2/C1=C\c1c(-c2ccccc2)nc2ccccn12,GI50,[1],2.1 µM
same,TGI,[1],6.67 µM
C[C@]12CC[C@@H]3c4ccc(O)cc4CC[C@H]3[C@@H]1CC[C@@H]2NS(=O)(=O)c1ccc(Cl)cc1,GI50,[1],4.94 µM
same,TGI,[1],17.3 µM
